Test results as given in publication PMC7794433, “Peptide signaling without feedback in signal production operates as a true quorum sensing communication system in Bacillus subtilis” (Communications Biology, 2021).
Entries after “also recorded” stand apart in the source; their conditions may differ.

Tests used:
[1] = test system: B. subtilis proteases; conditions: 24 h MSgg spent medium of PS-216 wt; 24 h incubation; ref Spacapan et al.22; cited from earlier work
Excerpt: page 5: cells per unit volume (cell density), N(t) , and the time cells were producing the molecule, t . The molecule of interest can potentially get degraded by the degradation rate γ(t ). […] The protease content of CM growth medium used in t ...

[2] = test system: ComX biosensor BD2876 (ΔcomQ, srfA-lacZ); assay: β-galactosidase response of ComX biosensor BD2876 to spent medium or added ComX; format: cell-based, Bacillus subtilis; conditions: ≈1 nM ComX in PS-216 ΔcomQ spent medium (positive control)
Protocol: Overnight cultures were grown in competence medium[57] (CM) supplemented with L-histidine, L-leucine, and L-methionine (50 μg mL^–1). Prior to fermenter inoculation, the cells were washed twice by replacing the spent medium of overnight culture with SS buffer[58]. Cell suspension was inoculated into 1.2 L of fresh CM (2% inoculum). Incubation was performed at 37 °C with mixing at 700 rpm and the closed off air flow. In instances where we tested O2 impact on SM concentration the medium was saturated with O2 by ensuring a supply of compressed air at a flow rate of 1 L min^-1. The dissolved O2 was measured using the O2 polarized electrode InPro 6820 (Mettler Toledo). No pH correction was performed or anti foaming agents were added.
control) ▲,,, or supplemented with the wt strain spent medium 10 times diluted by spent medium of the
ΔcomQ strain (experimental) ▲,,; The spent medium of the PS-216 (ΔcomQ) strain was obtained in the
parallel fermenter batch system. The strains PS-216 wt and PS-216 (ΔcomQ) were grown in the fermenter batch
system where oxygen supply was limited (a) or supplied to the saturation (b).
to 3 independent experiments.

[3] = Aging of purified ComX stock solution followed by HPLC; format: physicochemical; conditions: 4 °C
Protocol: spectrometer (Bruker, Germany). FlexControl 3.3 software (Bruker, Germany) was used to control the instrument, FlexAnalysis 3.3 to process data and to calibrate spectra (Bruker, […]
two-sided), for about 2-fold compared to the original medium (Fig. S6b ). To further increase […]
recombinant proteins in E. coli and gained altogether significant 5-fold increase (P < 0.0001, t-value= 9.6, two- sided) compared to the original medium. The overnight LB E. coli ED367 culture, supplemented with 100 µg/mL of Amp, grown in 37 °C (200 rpm), was transferred to fresh TB medium (1 % inoculum) supplemented by 20 mM MgCl2 and 100 µg/mL of Amp.
After about 2 h and 45 min of incubation at 37 °C (200 rpm) when culture reached OD650 of […]., the spent growth medium was removed by culture centrifugation (5000 g, 5 min, room temperature). […]
β-galactosidase assay. […] To improve the sensitivity of the assay, the plates were then warmed to 30 °C, 25 μL ortho- nitrophenyl-β-galactoside (ONPG) substrate (8 mg/mL) was added and the absorbance (420 nm) in 1 min intervals was read using a Multiscan Spectrum […]
Supplementary Figure 5: Maximum normalized response measured as the srfA promoter activity of B. subtilis PS-216 (∆comQ, PsrfAA -yfp) (no signal production) to the exogenously added signal molecule, SM, (ComX). […]
SS buffer at 4 °C as measured by HPLC. […]

[4] = test system: B. subtilis proteases; assay: Biological degradation of ComX in B. subtilis spent medium; format: in vitro ADME, Bacillus subtilis; conditions: spent CM medium max 7 h old; assumption from low protease content
Protocol: cells per unit volume (cell density), N(t) , and the time cells were producing the molecule, t . The molecule of interest can potentially get degraded by the degradation rate γ(t ). In the differential form and as a function of time one can express concentration of signal molecule SM(t) as:
dddddd (tt ) = PPdddd (tt ) NN (tt ) − γγ (tt )SSSS (tt ) eq S1 […]
spent medium obtained after 24 h of incubation with PS -216 wt (when the proteases accumulated in enough high concentration). In our case, however, the spent media were maxi mal 7 h old and the protease content of spent CM growth medium used in current study […]
(Supplementary Fig. 7). Therefore , we assumed that biological degradation of SM (ComX) is negligible under conditions in this study. Under the buffered conditions (as in CM growth […]
experiments where we applied our model. Therefore, in our modeling we assumed that degradation rate of SM is negligible (γ(t) ≈ 0) and the eq S 1 can be simplified to: […]
Normalized fluorescence intensity per cell Normalized fluorescence intensity per cell
Supplementary Figure 8: The second replicate (for first replicate, see Fig 5g,h) of the distribution of gene expression measured by single cell fluorescence microscopy. Gene expression level was measured as Na-fluoresceinate standard normalized mean fluorescence intensity per cells expressing comQ -yfp (a) and srfA -cfp (b). […]

[5] = test system: srfA promoter in B. subtilis PS-216 (∆comQ, PsrfAA-yfp); assay: srfA promoter response (Yfp fluorescence per cell) to exogenously added ComX; format: cell-based, Bacillus subtilis
Protocol: In our model, the expression level of the srfA operon serves as a measure for the response (RM) to the signal molecule SM, represented by ComX. To study how RM depends on SM we evaluated promoter activity of srfA in the B. subtilis PS-216 (∆comQ, PsrfAA-yfp), which carries the markerless deletion of comQ[42] and is therefore signal-deficient. […] The response to SM was sigmoidal. […] We have therefore taken the 4 hours response curve (Fig. 4a) as a reference for further communication system analysis. The sigmoidal functions can typically describe the relationship between transcription factors and promoter activities, and can be modeled by the Hill equation[43],[44]. […] This agrees with the research showing that two molecules of the ComA homodimer cooperatively bind to the two promoter regions located upstream of the RNAP binding sites of srfA[13],[20],[45].
To quantify a response (RM) to different signal molecule (SM) concentrations at the population level we used the signal deficient B. subtilis PS-216 (∆comQ PsrfAA-yfp), which carries the comQ marker-less deletion and the srfA promoter tagged with the Yfp fluorescent reporter (Supplementary Table 1).
(final concentration of 50 µg mL^–1). […] The plate was placed on a microtiter plate shaker (1 mm orbit, 1100 rpm) that was positioned in the humidified chamber to eliminate sample evaporation. To improve the homogeneity of the conditions (airflow, temperature) on the microtiter plate the microtiter plate lids were elevated by 2 mm relative to the surface of microtiter plate. The plates were incubated at 37 °C for 3, 4, or 6 h. The cells were then re-suspended and fixed in 200 µL of 1% agarose containing DAPI dye (6 µg mL^−1).
For quantitative analysis we used laser confocal fluorescence microscopy (Zeiss, LSM 800). The images were acquired by two laser channels—488 nm laser for acquiring fluorescence from Yfp protein and 405 nm laser to acquire fluorescence from DAPI dye. The acquired images were 1024 × 1024 pixels in size with 16-bit color depth at 20× optical magnification (objective 20×/NA 0.4, Zeiss) and were analyzed with Fiji-ImageJ[59] custom script. Four images per well of microtiter plate were taken, each image contained about 350 cells. The measure for amount of Yfp on image was integrated density i.e., the product of mean fluorescence intensity and area taken by the cells. The response per cell was quantified as the ratio of image integrated density by the number of cells obtained from DAPI image.
The analytical form of the model equation for response per cell to the signal during bacterial growth in the fermenter batch system (Eq. 3, eq S11) was derived and fitted to the experimental data by the help of Wolfram Mathematica 11.0 (Wolfram Research, Inc.). […]

ADPITRQWGD [ComX, isoprenylated (farnesylated) quorum sensing signal peptide of B. subtilis, HPLC purified from E. coli ED367]
Degradation in MSgg spent medium [1]: significant level only after incubating ComX for 24 h; also recorded: can degrade
Biosensor BD2876 response to added purified ComX [2]: strongly responded
Half-life time of ComX ([3]; purified ComX stock (typically 200 nM) in SS buffer with BSA 50 μg/mL, n = 8 independent experiments): about 50 days
Chemical stability ([3]; purified ComX, SS buffer): strong chemical stability
Biological degradation in spent CM medium [4]: negligible
ComX concentration at which the highest response value is reached ([5]; 37 °C, CM medium, n = 4): around 10 nM
Shape of response to ComX ([5]; 4 h incubation, exogenously added ComX): sigmoidal
Lower limit response (LLR), critical ComX concentration required to induce quantifiable response ([5]; first significantly positive response (lower 95% confidence level > 0), 37 °C, CM medium): 0.2 to 0.5 nM
Km ([5]; read-out: Km, ComX concentration at which half of the maximum response is achieved, Hill fit (Eq. 2) of srfA promoter Yfp fluorescence per cell, CM medium, 37 °C, 3, 4 or 6 h incubation, BSA added, n = 4): 3 to 5 nM
